These results are taken from patent US8426369B2, “Prevention and treatment of colon cancer” (Rutgers, The State University of New Jersey, priority 2006, dated 2013).

One assay relates to Elk-1. The experiment in a line: Western blot of cytokine-induced Elk-1 phosphorylation in HT-29 cells. As to conditions: cytokine-treated HT-29. Type of assay: cell-based, human. The procedure: (§1) The cell culture conditions and the reagents used in this example were described in Example 32. Whole cell extracts were collected after the various treatments and analyzed by western blotting. The protein samples were separated on 4-15% SDS-PAGE gels (Biorad, Hercules, Calif.) followed by transfer to a polyvinylidene fluoride membrane. The membranes were blocked with 5% milk in Tris buffer for 1 h and then incubated with the appropriate primary antibody solutions overnight at 4° C. The membranes were washed with Tris buffer, and incubated with horseradish peroxidase conjugated secondary antibody solutions for 1 h at room temperature.
The protein bands were visualized using a chemiluminescence based kit from Amersham Biosciences (Buckinghamshire, UK). The primary antibodies against iNOS, COX-2, IκBα, cyclin D1, c-myc (Santa Cruz Bio-technology, Santa Cruz, Calif.), phospho-STAT3, phospho-Erk1/2, phospho-JNK1/2, phospho-p38, phospho-Akt, phospho-ATF2, phospho-Elk1, PARP (Cell Signaling Technology Inc., Beverly, Mass.) and actin (Sigma, St. Louis, Mo.) and secondary antibodies (Santa Cruz Biotechnology, Santa Cruz, Calif.) were used for probing the abundance of the target protein in the samples. […]
Background: A western blot detects proteins with antibodies after separation by electrophoresis.

Another assay concerns cyclin D1. The experiment in a line: Western blot of cyclin D1 in HT-29 cells. As to conditions: 9 h or 18 h, especially at 9 h. The assay is classed as cell-based, human. The procedure:
The cells were incubated with different concentrations of pterostilbene for 1, 2 and 3 days, and cell proliferation was estimated by measuring [^3H]thymidine incorporated into DNA. […] In order to evaluate whether pterostilbene potentiates cell cycle arrest or apoptosis in HT-29 cells, the effect of pterostilbene on the proteins regulating the cell cycle and/or apoptosis pathways was examined. Cells treated with pterostilbene for 9 h or 18 h were harvested and protein samples were analyzed by Western blotting (FIG. 8B).
as §1
(§2) The protein bands were visualized using a chemiluminescence based kit from Amersham Biosciences (Buckinghamshire, UK). […]

In another assay the test system is p-Akt. The experiment in a line: Western blot of p-Akt in cytokine-treated HT-29 cells. Type of assay: cell-based, human. The procedure: as §1
(§3) The protein bands were visualized using a chemiluminescence based kit from Amersham Biosciences (Buckinghamshire, UK). The primary antibodies against iNOS, COX-2, IκBα, cyclin D1, c-myc (Santa Cruz Bio-technology, Santa Cruz, Calif.), phospho-STAT3, phospho-Erk1/2, phospho-JNK1/2, phospho-p38, phospho-Akt, phospho-ATF2, phospho-Elk1, PARP (Cell Signaling Technology Inc., Beverly, Mass.) and actin (Sigma, St. Louis, Mo.) and secondary antibodies (Santa Cruz Biotechnology, Santa Cruz, Calif.) were used for probing the abundance of the target protein in the samples.

A further assay relates to p65 subunit of NF-κB. The experiment in a line: Nuclear protein level of p65 subunit of NF-κB in HT-29 cells. As to conditions: HT-29, data not shown. Type of assay: cell-based, human.
The test system of another assay is iNOS. The experiment in a line: iNOS immunostaining of colon sections. As to conditions: 40 ppm in diet, AOM-treated rats. Type of assay: in vivo, male F344 rats. The procedure: Animals were treated as described in Example 27. Colon samples from each group were harvested at autopsy and fixed in 10% formalin for 24 hr. They were sectioned into 8 to 10 segments, paraffin embedded, and microtomed into 4 μm thick tissue sections. The slides were incubated overnight at room temperature with antibody to proliferating cell nuclear antigen (PCNA) (1:1000 diluted, BD Pharmingen, San Diego, Calif.), iNOS (1:100 diluted, Santa Cruz Biotechnology, Santa Cruz, Calif.), or mucin MUC2 (1:250 diluted, Santa Cruz Biotechnology, Santa Cruz, Calif.).
The slides were incubated with the biotinylated secondary antibody, and then with avidin/biotinylated peroxidase complex for 30 min at room temperature (Vector Labs, Burlingame, Calif.), and were incubated with […] (DAB) substrate. The sections were then counter-stained with Modified Harris Hematoxylin. The images were taken randomly at 400× using Zeiss AxioCam HRc camera fitted to a Zeiss Axioskope 2 Plus microscope. A positive reaction is noted by a reddish brown precipitate in the nucleus for PCNA, in the cytoplasm for iNOS or in the colon crypts for mucin MUC2.

Assay [1] deals with carcinogen-induced preneoplastic lesions. As to conditions: MMOC model; cited from earlier work.
A further assay has as its system TGF-β ligands. The experiment in a line: Induction of TGF-β ligands in HT-29 cells. Type of assay: cell-based, human. As to conditions: HT-29, data not shown. The text has this: The significance of the transforming growth factor (TGF-β) pathway in down-regulating iNOS expression by pterostilbene was also investigated since TGF-β is a very potent inhibitor of iNOS and cytokines regulate Smad signaling of the TGF-β pathway. However, there was no effect of pterostilbene on activated Smad levels (p-Smad3) or in inducing TGF-β ligands (data not shown).

A further assay deals with IκBα. The experiment in a line: Western blot of IκBα after cytokine treatment of HT-29 cells. Type of assay: cell-based, human. As to conditions: cytokine treatment 15 min. The procedure: as §1, §3
The significance of the JAK-STAT pathway in HT-29 cells was evaluated by probing for phospho-STAT3. Cytokines activated the STAT pathway, as shown by a strong induction of phospho-STAT3.

Another assay has as its system COX-2. The experiment in a line: Cytokine-induced COX-2 protein expression in HT-29 cells (Western blot). The assay is classed as cell-based, human. The procedure: Human colon carcinoma cell lines HT-29 was obtained from the American Type Culture Collection (Manassas, Va.). The cells were maintained in Dulbecco's modification of Eagle's medium (DMEM) supplemented with 10% FBS and 1% penicillin/streptomycin at 37° C. and 5% CO2. The cytokine mixture, consisting of 10 ng/ml of TNF-α, IFN-γ and LPS, was used to induce iNOS and COX-2, unless otherwise mentioned. The cells were treated with the test compound either alone or in combination with cytokines for different time intervals and harvested for protein or RNA.
as §1, §2

A further assay has as its system IL-1β mRNA. The experiment in a line: Quantitative RT-PCR of cytokine-induced IL-1β mRNA in HT-29 cells. The assay is classed as cell-based, human. As to conditions: 10 and 30 μM. The procedure:
The cell culture conditions and the reagents used in this example were described in Example 32. The gene-mediated expression of iNOS and COX-2 are reported to be regulated at both the transcriptional and translational levels. In order to understand the effect of pterostilbene on cytokine-induced expression of proinflammatory enzymes and cytokines, RNA samples after treatment of HT-29 cells with cytokines and/or pterostilbene were analyzed by quantitative RT-PCR for the induction of mRNA levels of iNOS, COX-2, IL-1β, IFN-γ and TNF-α genes.
To determine the changes of mRNA levels by pterostilbene and cytokines, quantitative RT-PCR analysis was utilized, as described previously (Lee et al., Mol Pharmacol 2006; 69(6):1840-1848). Briefly, the cells were incubated with compounds for indicated period and the cells were then lysed using Trizol to extract RNA. RNA was reverse transcribed into cDNA using a high capacity cDNA archive kit (Applied Biosystems, Foster City, Calif.). The cDNA was used for quantitative PCR which was run on the ABI Prism […] sequence Detection System. The primers for the iNOS, COX-2, IFN-γ, TNF-α, IL-1β and GAPDH were obtained from Applied Biosystems (Foster City, Calif.).

Consider `COc1cc(/C=C/c2ccc(O)cc2)cc(OC)c1` [pterostilbene, (E)-4-(3,5-dimethoxystyryl)phenol], for which, in the assay with Elk-1, the “cytokine-induced activation (phosphorylation) of Elk-1” value was “effective in inhibiting”. Also, in the assay on cyclin D1, the “cyclin D1 level” value is reported as “effective in reducing”. Besides, the “level of p-Akt” value with p-Akt was “did not change”. The “nuclear protein levels of the p65 subunit of NF-κB” value in the assay on p65 subunit of NF-κB is “remained high and unaltered”. Besides, the “iNOS staining of ACF with moderate dysplasia” value with iNOS was “weak cytoplasmic staining”. The “preventing carcinogen-induced preneoplastic lesions” value in assay [1] was “as effective as resveratrol”. The “inducing TGF-β ligands” value in the assay with TGF-β ligands is listed as “no effect”. Moreover, the “effects on IκBα induced by the cytokines” value in the assay with IκBα is on record as “did not block”. Moreover, the “induction of COX-2 by the cytokine mixture” value in the assay on COX-2 (30 μM, 9, 12 and 15 h) is on record as “markedly blocked”. Besides, in the assay on COX-2 (different concentrations), the “induction of COX-2 by the cytokine mixture, different concentrations” value was “dose-dependent manner”. Further, the “IL-1β mRNA induction by the cytokine mixture” value in the assay on IL-1β mRNA is recorded as “strongly inhibited”.
